The values that follow come from US20190365760A1, “A THERAPEUTIC OR PROPHYLACTIC AGENT FOR ISCHEMIC DISEASE, GLAUCOMA, OPTIC NERVE DISEASE, RETINAL DEGENERATIVE DISEASE, ANGIOGENIC RETINAL DISEASE, CANCER, NEURODEGENERATIVE OR AUTOIMMUNE DISEASE, AND A HYPOXIA INDUCING FACTOR INHIBITOR” (KEIO UNIVERSITY, priority 2016, published 2019).

Data set [1] deals with HIF. The data set is described as follows: HIF reporter assay (HIF-activity-dependent Firefly-Luciferase) in NIH3T3 cells with CoCl2. To be noted: for cytotoxicity (endogenous control CMV-Renilla-Luciferase activity): CoCl2; for HIF activity (HIF inhibitory activity): CoCl2 200 μM, luminescence 24 hours after CoCl2. It is filed as cell-based, mouse. Here is the method: (§1) The HIF-activity-dependent Firefly-Luciferase and endogenous control CMV-Renilla-Luciferase were both transgenic into mouse fibroblast cell line (NIH3T3) and mouse retinal […] cell line (661 W) using lentiviruses to generate stable expression lines. HIF can be stabilized by adding cobalt chloride (CoCl2), a PHD inhibitor, to the cells, and luciferin can be added to obtain a luminescent signal correlating with HIF activity. Samples of various natural products were added to the cells to confirm the HIF inhibitory effect of the candidate on cobalt chloride-induced HIF activity.
(§2) Specifically, 1×10^4 of NIH3T3 cells and 0.8×10^4 of 661 W cells were seeded on a 96-well plate with the above cell lines. After cells were engrafted to the bottom of the plate, HIF-activity was induced by adding CoCl2 at 200 μM. The luminescence strength was measured 24 hours after the CoCl2 was added using a Dual-Glo Luciferase assay system manufactured by Promega Corporation. The candidates were added at the same time as the of the CoCl2.

In data set [2] the test system is HIF. Put plainly: HIF reporter assay (HIF-activity-dependent Firefly-Luciferase) in 661W cells with CoCl2. It is filed as cell-based, mouse. As to conditions: for cytotoxicity (endogenous control CMV-Renilla-Luciferase activity): CoCl2; for HIF activity (HIF inhibitory activity): CoCl2 200 μM, luminescence 24 hours after CoCl2. The protocol: as §1, §2
Data set [3] has as its system HIF. Put plainly: HIF reporter assay in ARPE19 cells with CoCl2. Type of data set: cell-based. Here is the method:
as §1, §2
Halofuginone, a halogenated derivative of ferbrifudine in Hydrangea macrophylla, was used as a sample to measure HIF activity on 661W cells, 3T3 cells, or ARPE19 cells in the assays described above. […] In FIGS. 11 to 13, “CoCl2+HF” indicates a system in which CoCl2 are added to the cells. […]

Data set [4] relates to Mouse Retinal Ischemia-Reperfusion Model. The data set is described as follows: Mouse retinal ischemia-reperfusion model, optical coherence tomography (OCT). To be noted: 0.2 mg/kg intraperitoneally, radius 250 μm from optic nerve head. It is filed as in vivo, C57BL6J mice. The protocol: (§3) First, 0.2 mg/kg of halofuginone solution dissolved in PBS was administered intraperitoneally once daily to C57BL6J mice 8 weeks old (male; manufactured by Crea Japan) for 7 consecutive days (Halofuginone group; n=4). The control group received the same dose of PBS intraperitoneally for the same period (n=4).
(§4) Retinal ischemia reperfusion treatment was then performed as follows.
(§5) Nine-week-old mice were administered intraperitoneal anesthetics (three mixtures: medetomidine 0.75 mg/kg, midazolam 4 mg/kg, and butorphanol 5 mg/kg; hereinafter referred to as “MMB”). At the same time as anesthesia, Midrin P ophthalmic solution (Santen Pharmaceutical Co., Ltd.) was used to dilate both eyes.
(§6) The physiological saline infusion bags were fixed at a height of 1.5 m from the laboratory table, inserted into the anterior chamber of the right eye of the mice with 35 G needles perfused with physiological saline, and perfusion was started. Intraocular pressure was measured every 5 minutes (Tonolab hand-held tonometer; manufactured by icare Corporation) to confirm that intraocular pressure was maintained at 85-99 mm Hg. […]
The entire thickness of the retina was evaluated using OCTs in order to measure the total thickness of the retina in the In vivo.
Mice were fixed under MMB anesthesia and the total retinal thickness centered on the optic papilla was measured. […]

Another data set has as its system glut1 gene. The data set is described as follows: Real-time PCR gene expression in 661W cells with CoCl2. As to conditions: CoCl2 200 μM, four hours after adding halofuginone. It is filed as cell-based, mouse. The protocol: (§7) In the system of 661W cells to which the CoCl2 was added, the expression levels of the respective genes were measured in order to examine the inhibitory effects of halofuginone on the hif gene induced by the CoCl2 and the bnip3 gene, glut1 gene, pdk1 gene, and vegf gene which are the downstream genes. The expression level was measured by Real-time PCR. Specifically, 3×10^4 of 661 W cells were seeded on a 24-well plate, and CoCl2 was added at a density of 200 μM after cell immobilization. Halofuginone was added at the concentrations shown in FIG. 14 simultaneously with CoCl2. Four hours after adding halofuginone, RNAs were extracted, cDNA was synthesized, and then Real-time PCR was performed to determine the expression levels of the respective genes.

Another data set has as its system bnip3 gene. Described as above. Type of data set: cell-based, mouse. To be noted: CoCl2 200 μM, four hours after adding halofuginone. Here is the method: as §7
The subject of a further data set is pdk1 gene. The description is as above. Type of data set: cell-based, mouse. To be noted: CoCl2 200 μM, four hours after adding halofuginone. The protocol: as §7
Data set [5] relates to Mouse Retinal Photoinjury Model. The data set is described as follows: Mouse retinal photoinjury model, electroretinography. It is filed as in vivo, BALB/c mice. As to conditions: 0.4 mg/kg intraperitoneally once daily for 5 days, white LED 3000 lux 1 hour, compared with PBS group. Here is the method:
First, 0.4 mg/kg of halofuginone solution dissolved in PBS was administered intraperitoneally once daily to BALB/c mice 8 weeks old for 5 consecutive days (halofuginone group; n=4). The control group received the same amount of PBS (phosphate buffered saline) intraperitoneally (n=4) for the same period of time. Dark adaptation was performed on day 4 of the above period and then on day 5 a white LED of 3000 lux was irradiated for 1 hour. Dark adaptation was performed on day 6 after the light irradiation, and electroretinography was performed on day 7.

The test system of data set [6] is mouse ganglion cell disorder model. As to conditions: vitreous administration of N-methyl-D-aspartic acid; previously reported by the inventors; cited from earlier work.
For data set [7], the system named is Mouse Retinal Ischemia-Reperfusion Model. Put plainly: Mouse retinal ischemia-reperfusion model, visual evoked potential (VEP). Type of data set: in vivo, C57BL6J mice. To be noted: 0.2 mg/kg intraperitoneally, 1 Hz flashing light 3 cds/m^2. The protocol: as §3, §4, §5, §6
The VEPs of the same individuals were then measured continuously. […]
Differences (P1-N1) from each first negative crest to the next positive crest were measured as amplitudes, and latencies were also measured, and the mean of two times was evaluated as the value of one individual.

For `COc1cccc2c1C(=O)c1c(O)c3c(c(O)c1C2=O)C[C@@](O)(C(=O)CO)C[C@@H]3O[C@H]1C[C@H](N)[C@H](O)[C@H](C)O1` [doxorubicin], in the data set with HIF [1], the “cytotoxicity (endogenous control CMV-Renilla-Luciferase activity)” value (from here on “cytotoxicity”) was “without cytotoxicity” and the “HIF activity (HIF inhibitory activity)” value is on record as “significantly decreased”. Besides, in the data set on HIF [2], the “cytotoxicity” value is “without cytotoxicity” and the “HIF activity (HIF inhibitory activity)” value is “significantly decreased”.

For the compound `O=C(C[C@@H]1NCCC[C@H]1O)Cn1cnc2cc(Br)c(Cl)cc2c1=O` [halofuginone], the “HIF activity (HIF inhibitory activity)” value with HIF [3], in the data set with HIF [1] and in the data set with HIF [2] was “significant level-dependent HIF inhibitory activity” in each case. In data set [4], the “total thickness of the retina by OCT” value amounted to 251.9±7.2 μm. In the data set on glut1 gene, the “expression level of the glut1 gene” value is given as “decreased”. The “expression level of the bnip3 gene” value in the data set with bnip3 gene is “decreased”. Also, the “expression level of the pdk1 gene” value with pdk1 gene is “decreased”. The “electroretinography amplitude (dark-adapted and light-adapted)” value in data set [5] is given as “decrease in amplitude was suppressed”. Also, the neuroprotective effect entry in data set [6] is “neuroprotective effect”. In addition, the “VEP amplitude (P1-N1)” value in [7] is reported as 92±10.9 μV.

As to `CC[C@@]1(O)C(=O)OCc2c1cc1n(c2=O)Cc2cc3c(CN(C)C)c(O)ccc3nc2-1` [topotecan], the “cytotoxicity” value in the data set with HIF [1] and with HIF [2] was “without cytotoxicity” throughout.
